Data reported in patent US20040092552A1, “2-Fluorobenzenesulfonyl compounds for the treatment of inflammation” (priority 2003, published 2004).
Where a name gives a salt, the structure may show the parent alone.

Compound	melting point
CS(=O)(=O)c1ccc(-c2cc(C(F)F)nn2C2CCCCC2)cc1F (as salt: trifluoroacetate) [Example 19, 1-Cyclohexyl-3-(difluoromethyl)-5-[3-fluoro-4-(methylsulfonyl)phenyl]-1H-pyrazole]	138 to 139 °C
Cc1ccc(-n2nc(C(F)F)cc2-c2ccc(S(C)(=O)=O)c(F)c2)cc1Cl (as salt: trifluoroacetate) [Example 20, 1-(3-Chloro-4-methylphenyl)-3-(difluoromethyl)-5-[3-fluoro-4-(methylsulfonyl)phenyl]-1H-pyrazole]	146 to 147 °C
CS(=O)(=O)c1ccc(-c2cc(C(F)F)nn2-c2cccc(C(F)(F)F)c2)cc1F (as salt: trifluoroacetate) [Example 21, 3-(Difluoromethyl)-5-[3-fluoro-4-(methylsulfonyl)-phenyl]-1-[3-(trifluoromethyl)-phenyl]-1H-pyrazole]	110 to 111 °C
NS(=O)(=O)c1ccc(-c2cscc2-c2ccccc2)cc1F [Example 1, 2-Fluoro-4-(4-phenyl-3-thienyl)benzenesulfonamide]	170.9 to 171 °C
CS(=O)(=O)c1ccc(-c2cscc2-c2ccccc2)cc1F [Example 2, 3-[3-Fluoro-4-(methylsulfonyl)phenyl]-4-phenylthiophene]	140 to 141 °C
Cc1ccc(-c2cc(C(F)F)nn2-c2ccc(S(N)(=O)=O)c(F)c2)cc1Cl [Example 3, 4-[5-(3-chloro-4-methylphenyl)-3-(difluoromethyl)-1H-pyrazol-1-yl]-2-fluorobenzenesulfonamide]	160 to 161 °C
CS(=O)(=O)c1ccc(-c2cc(C(F)(F)F)nn2C2CCCCC2)cc1F [Example 12, 1-Cyclohexyl-5-[3-fluoro-4-(methylsulfonyl)phenyl]-3-(trifluoromethyl)-1H-pyrazole]	228 to 229 °C
Cc1onc(-c2ccc(F)cc2)c1-c1ccc(S(N)(=O)=O)c(F)c1 [Example 22, 2-Fluoro-4-[3-(4-fluorophenyl)-5-methyl-4-isoxazolyl]benzenesulfonamide]	176 to 177 °C
CS(=O)(=O)c1ccc(C2=C(c3ccccc3)C(=O)OC2)cc1F [Example 24, 4-[3-Fluoro-4-(methylsulfonyl)phenyl]-3-phenyl-2(5H)-furanone]	161 to 162 °C

Second part, the compound after the results:

melting point	Compound
126 to 128 °C	Cc1ccc(-c2cc(C(F)(F)F)nn2-c2ccc(S(N)(=O)=O)c(F)c2)cc1 (as salt: trifluoroacetate) [Example 4, 4-[5-(4-Methylphenyl)-3-(trifluoromethyl)-1H-pyrazol-1-yl]-2-fluorobenzenesulfonamide]
140 to 141 °C	NS(=O)(=O)c1ccc(-n2nc(C(F)(F)F)cc2-c2ccc(Cl)cc2)cc1F (as salt: trifluoroacetate) [Example 5, 4-[5-(4-Chlorophenyl)-3-trifluoromethyl-1H-pyrazol-1-yl]-2-fluorobenizenesulfonamide]
124 to 126 °C	COc1ccc(-c2cc(C(F)(F)F)nn2-c2ccc(S(N)(=O)=O)c(F)c2)cc1F (as salt: trifluoroacetate) [Example 6, 4-[5-(3-Fluoro-4-methoxy)-3-trifluoromethyl-1H-pyrazol-1-yl]-2 fluorobenzenesulfonamide]
127 to 130 °C	NS(=O)(=O)c1ccc(-n2nc(C(F)(F)F)cc2-c2ccc(F)cc2)cc1F (as salt: trifluoroacetate) [Example 8, 2-Fluoro-4-[5-(4-fluorophenyl)-3-(trifluoromethyl)-1H-pyrazol-1-yl]benzenesulfonamide]
159 to 160 °C	COc1ccccc1-c1cc(C(F)(F)F)nn1-c1ccc(S(N)(=O)=O)c(F)c1 (as salt: trifluoroacetate) [Example 9, 2-Fluoro-4-[5-(2-methoxyphenyl)-3-(trifluoromethyl)-1H-pyrazol-1-yl]benzenesulfonamide]
201 to 202 °C	CS(=O)(=O)c1ccc(-c2cc(C(F)F)nn2-c2ccc(F)cc2)cc1F (as salt: trifluoroacetate) [Example 18, 3-(Difluoromethyl)-5-[3-fluoro-4-(methylsulfonyl)phenyl]-1-(4-fluorophenyl)-1H-pyrazole]
167 to 169 °C	COc1ccc(-c2cc(C(F)F)nn2-c2ccc(S(N)(=O)=O)c(F)c2)cc1F [Example 10, 4-[3-(Difluoromethyl)-5-(3-fluoro-4-methoxyphenyl)-1H-pyrazol-1-yl]-2-fluorobenzenesulfonamide]
228 to 229 °C	CS(=O)(=O)c1ccc(-c2cc(C(F)(F)F)nn2-c2ccc(F)cc2)cc1F [Example 11, 5-[3-Fluoro-4-(methylsulfonyl)phenyl]-1-(4-fluorophenyl)-3-(trifluoromethyl)-1H-pyrazole]
110 to 112 °C	CS(=O)(=O)c1ccc(-c2cc(C(F)(F)F)nn2-c2ccc(OC(F)(F)F)cc2)cc1F [Example 14, 5-[3-Fluoro-4-(methylsulfonyl)phenyl]-3-(trifluoromethyl)-1-[4-(trifluoromethoxy)phenyl]-1H-pyrazole]
144 to 145 °C	Cc1ccc(-n2nc(C(F)(F)F)cc2-c2ccc(S(C)(=O)=O)c(F)c2)cc1Cl [Example 15, 1-(3-Chloro-4-methylphenyl)-5-[3-fluoro-4-(methylsulfonyl)phenyl]-3-(trifluoromethyl)-1H-pyrazole]
152 to 153 °C	CS(=O)(=O)c1ccc(-c2cc(C(F)(F)F)nn2-c2ccc(C#N)cc2)cc1F [Example 16, 4-[5-[3-Fluoro-4-(methylsulfonyl)phenyl]-3-(trifluoromethyl)-1H-pyrazol-1-yl]benzonitrile]
129 to 130 °C	Cc1cccc(-n2nc(C(F)(F)F)cc2-c2ccc(S(C)(=O)=O)c(F)c2)c1 [Example 17, 5-[3-Fluoro-4-(methylsulfonyl)phenyl]-1-(3-methylphenyl)-3-(trifluoromethyl)-1H-pyrazole]
